Results reported in patent US11254695B2, “Soluble C5aR antagonists” (CHEMOCENTRYX, INC., priority 2016, dated 2022).
Values after ≈ are worked out from the molar mass of the structure shown. Where a name gives a salt, the structure may show the parent alone.

Experiment: Solubility in Milli-Q water, examined with naked eye
Assay type: physicochemical
Conditions: thermodynamic from solid; arbitrary amount in 1 mL Milli-Q water, room temperature, clear solution by naked eye; not the maximum solubility; read-out: Solubility in H2O
Text: Experiments with no visible particles by naked eye were considered as clear solutions. It is important to note that the reported solubility information is not the maximum solubility of the compounds in water.

SMILES	solubility [µg/mL]
Cc1ccc(NC(=O)[C@H]2CCCN(C(=O)c3c(C)cccc3F)[C@H]2c2ccc(N(C(=O)CN(C)C)C3CCCC3)cc2)cc1C(F)(F)F [Example 1, (2R,3S)-2-[4-[cyclopentyl-[2-(dimethylamino)acetyl]amino]phenyl]-1-(2-fluoro-6-methyl-benzoyl)-N-[4-methyl-3-(trifluoromethyl)phenyl]piperidine-3-carboxamide]	> 10000
Cc1ccc(NC(=O)[C@H]2CCCN(C(=O)c3c(C)cccc3F)[C@H]2c2ccc(N(C(=O)CN)C3CCCC3)cc2)cc1C(F)(F)F [Example 2, (2R,3S)-2-[4-[(2-aminoacetyl)-cyclopentyl-amino]phenyl]-1-(2-fluoro-6-methyl-benzoyl)-N-[4-methyl-3-(trifluoromethyl)phenyl]piperidine-3-carboxamide]	> 5000
Cc1ccc(NC(=O)[C@H]2CCCN(C(=O)c3c(C)cccc3F)[C@H]2c2ccc(N(C3CCCC3)P(=O)(O)N[C@@H](Cc3c[nH]cn3)C(=O)O)cc2)cc1C(F)(F)F [Example 3, 2-[[[N-cyclopentyl-4-[(2R,3S)-1-(2-fluoro-6-methyl-benzoyl)-3-[[4-methyl-3-(trifluoromethyl)phenyl]carbamoyl]-2-piperidyl]anilino]-hydroxy-phosphoryl]amino]-3-(1H-imidazol-4-yl)propanoic acid]	5000 (≈ 6.26 mM)
Cc1ccc(NC(=O)[C@H]2CCCN(C(=O)c3c(C)cccc3F)[C@H]2c2ccc(N(C3CCCC3)P(=O)(O)OC(=O)C(C)C)cc2)cc1C(F)(F)F [Example 4, N-cyclopentyl-N-[4-[(2R,3S)-1-(2-fluoro-6-methyl-benzoyl)-3-[[4-methyl-3 (trifluoromethyl)phenyl]carbamoyl]-2-piperidyl]phenyl]-(2-methylpropanoyloxy)phosphonamidic acid]	1000 (≈ 1.37 mM)
Cc1ccc(NC(=O)[C@H]2CCCN(C(=O)c3c(C)cccc3F)[C@H]2c2ccc(N(C(=O)CNC(=O)CN)C3CCCC3)cc2)cc1C(F)(F)F [Example 5, (2R,3S)-2-[4-[[2-[(2-aminoacetyl)amino]acetyl]-cyclopentyl-amino]phenyl]-1-(2-fluoro-6-methyl-benzoyl)-N-[4-methyl-3-(trifluoromethyl)phenyl]piperidine-3-carboxamide]	10000 (≈ 14.4 mM)
Cc1ccc(NC(=O)[C@H]2CCCN(C(=O)c3c(C)cccc3F)[C@H]2c2ccc(N(C(=O)CNC(=O)[C@@H](N)CCCN)C3CCCC3)cc2)cc1C(F)(F)F [Example 6, (2R,3S)-2-[4-[cyclopentyl-[2-[[(2S)-2,5-diaminopentanoyl]amino]acetyl]amino]phenyl]-1-(2-fluoro-6-methyl-benzoyl)-N-[4-methyl-3-(trifluoromethyl)phenyl]piperidine-3-carboxamide dihydrochloride]	5000
Cc1ccc(NC(=O)[C@H]2CCCN(C(=O)c3c(C)cccc3F)[C@H]2c2ccc(N(C(=O)OCOC(=O)[C@@H](N)C(C)C)C3CCCC3)cc2)cc1C(F)(F)F [Example 7, [cyclopentyl-[4-[(2R,3S)-1-(2-fluoro-6-methyl-benzoyl)-3-[[4-methyl-3-(trifluoromethyl)phenyl]carbamoyl]-2-piperidyl]phenyl]carbamoyl]oxymethyl (2S)-2-amino-3-methyl-butanoate]	1000 to 2000 (≈ 1.32 to 2.65 mM)
Cc1ccc(NC(=O)[C@H]2CCCN(C(=O)c3c(C)cccc3F)[C@H]2c2ccc(N(C(=O)OCc3ccc(OP(=O)(O)O)cc3)C3CCCC3)cc2)cc1C(F)(F)F [Example 8, (4-phosphonooxyphenyl)methyl N-cyclopentyl-N-[4-[(2R,3S)-1-(2-fluoro-6-methyl-benzoyl)-3-[[4-methyl-3-(trifluoromethyl)phenyl]carbamoyl]-2-piperidyl]phenyl]carbamate]	1000 (≈ 1.23 mM)
Cc1ccc(NC(=O)[C@H]2CCCN(C(=O)c3c(C)cccc3F)[C@H]2c2ccc(N(C(=O)OCOP(=O)(O)O)C3CCCC3)cc2)cc1C(F)(F)F [Example 9, phosphonooxymethyl N-cyclopentyl-N-[4-[(2R,3S)-1-(2-fluoro-6-methyl-benzoyl)-3-[[4-methyl-3-(trifluoromethyl)phenyl]carbamoyl]-2-piperidyl]phenyl]carbamate]	> 10000
Cc1ccc(NC(=O)[C@H]2CCCN(C(=O)c3c(C)cccc3F)[C@H]2c2ccc(N(C(=O)OCOC(=O)/C=C/C(=O)O)C3CCCC3)cc2)cc1C(F)(F)F [Example 10, (E)-4-[[cyclopentyl-[4-[(2R,3S)-1-(2-fluoro-6-methyl-benzoyl)-3-[[4-methyl-3-(trifluoromethyl)phenyl]carbamoyl]-2-piperidyl]phenyl]carbamoyl]oxymethoxy]-4-oxo-but-2-enoic acid]	1000 (≈ 1.33 mM)
Cc1ccc(N(COP(=O)(O)O)C(=O)[C@H]2CCCN(C(=O)c3c(C)cccc3F)[C@H]2c2ccc(NC3CCCC3)cc2)cc1C(F)(F)F [Example 11, [N-[(2R,3S)-2-[4-(cyclopentylamino)phenyl]-1-(2-fluoro-6-methyl-benzoyl)piperidine-3-carbonyl]-4-methyl-3-(trifluoromethyl)anilino]methyl dihydrogen phosphate]	> 5000

Now from value to compound:

solubility [µg/mL]	SMILES
4000 (≈ 5.74 mM)	Cc1cccc(F)c1C(=O)N1CCC[C@H](C(=O)Nc2ccc(COC(=O)C(N)C(C)C)c(C(F)(F)F)c2)[C@@H]1c1ccc(NC2CCCC2)cc1 (stereo in doubt) [Example 17, [4-[[(2R,3S)-2-[4-(cyclopentylamino)phenyl]-1-(2-fluoro-6-methyl-benzoyl)piperidine-3-carbonyl]amino]-2-(trifluoromethyl)phenyl]methyl (2R)-2-amino-3-methyl-butanoate]
10000 (≈ 14 mM)	Cc1cccc(F)c1C(=O)N1CCC[C@H](C(=O)Nc2ccc(COC(=O)CNC(=O)CN)c(C(F)(F)F)c2)[C@@H]1c1ccc(NC2CCCC2)cc1 [Example 13]
5000 (≈ 6.63 mM)	Cc1cccc(F)c1C(=O)N1CCC[C@H](C(=O)Nc2ccc(COC(=O)CNC(=O)[C@@H](N)C(C)C)c(C(F)(F)F)c2)[C@@H]1c1ccc(NC2CCCC2)cc1 [Example 14, [4-[[(2R,3S)-2-[4-(cyclopentylamino)phenyl]-1-(2-fluoro-6-methyl-benzoyl)piperidine-3-carbonyl]amino]-2-(trifluoromethyl)phenyl]methyl 2-[[(2S)-2-amino-3-methyl-butanoyl]amino]acetate]
5000 (≈ 6.63 mM)	Cc1cccc(F)c1C(=O)N1CCC[C@H](C(=O)Nc2ccc(COC(=O)[C@@H](NC(=O)CN)C(C)C)c(C(F)(F)F)c2)[C@@H]1c1ccc(NC2CCCC2)cc1 [Example 15, [4-[[(2R,3S)-2-[4-(cyclopentylamino)phenyl]-1-(2-fluoro-6-methyl-benzoyl)piperidine-3-carbonyl]amino]-2-(trifluoromethyl)phenyl]methyl (2S)-2-[(2-aminoacetyl)amino]-3-methyl-butanoate]
5000 (≈ 6.28 mM)	Cc1cccc(F)c1C(=O)N1CCC[C@H](C(=O)Nc2ccc(COC(=O)[C@@H](NC(=O)[C@@H](N)C(C)C)C(C)C)c(C(F)(F)F)c2)[C@@H]1c1ccc(NC2CCCC2)cc1 [Example 16, [4-[[(2R,3S)-2-[4-(cyclopentylamino)phenyl]-1-(2-fluoro-6-methyl-benzoyl)piperidine-3-carbonyl]amino]-2-(trifluoromethyl)phenyl]methyl (2S)-2-[[(2S)-2-amino-3-methyl-butanoyl]amino]-3-methyl-butanoate]
> 5000	Cc1cccc(F)c1C(=O)N1CCC[C@H](C(=O)Nc2ccc(COC(=O)[C@H](C)N)c(C(F)(F)F)c2)[C@@H]1c1ccc(NC2CCCC2)cc1 [Example 18, [4-[[(2R,3S)-2-[4-(cyclopentylamino)phenyl]-1-(2-fluoro-6-methyl-benzoyl)piperidine-3-carbonyl]amino]-2-(trifluoromethyl)phenyl]methyl (2S)-2-aminopropanoate]
> 10000	Cc1cccc(F)c1C(=O)N1CCC[C@H](C(=O)Nc2ccc(COC(=O)CN)c(C(F)(F)F)c2)[C@@H]1c1ccc(NC2CCCC2)cc1 [Example 20, [4-[[(2R,3S)-2-[4-(cyclopentylamino)phenyl]-1-(2-fluoro-6-methyl-benzoyl)piperidine-3-carbonyl]amino]-2-(trifluoromethyl)phenyl]methyl 2-aminoacetate]
15000	Cc1cccc(F)c1C(=O)N1CCC[C@H](C(=O)Nc2ccc(COCOP(=O)(O)O)c(C(F)(F)F)c2)[C@@H]1c1ccc(NC2CCCC2)cc1 [Example 22, [4-[[(2R,3S)-2-[4-(cyclopentylamino)phenyl]-1-(2-fluoro-6-methyl-benzoyl)piperidine-3-carbonyl]amino]-2-(trifluoromethyl)phenyl]methoxymethyl dihydrogen phosphate]
> 1000	Cc1cccc(F)c1C(=O)N1CCC[C@H](C(=O)Nc2ccc(COC(=O)c3cccc(CN4CCN(C)CC4)c3)c(C(F)(F)F)c2)[C@@H]1c1ccc(NC2CCCC2)cc1 [Example 23, [4-[[(2R,3S)-2-[4-(cyclopentylamino)phenyl]-1-(2-fluoro-6-methyl-benzoyl)piperidine-3-carbonyl]amino]-2-(trifluoromethyl)phenyl]methyl 3-[(4-methylpiperazin-1-yl)methyl]benzoate]

Experiment: physchem
Assay type: physicochemical
Conditions: 25 °C, pH 7, aqueous buffer, thermodynamic from solid
Method: Saturated solutions of compound in pH 7 buffers were left overnight at room temperature (25° C.) before they were centrifuged. The supernatants were taken out and quantified. Solubility: 0.053 μg/mL.

solubility [µg/mL]	SMILES
0.053 (≈ 9.11e-05 mM)	Cc1ccc(NC(=O)[C@H]2CCCN(C(=O)c3c(C)cccc3F)[C@H]2c2ccc(NC3CCCC3)cc2)cc1C(F)(F)F

Experiment: Solubility of saturated solutions in D.I. water, quantified by LC-MS
Assay type: physicochemical
Conditions: thermodynamic from solid, saturated solution in D.I. water, shaken 3 hours at room temperature, average of four replicates
Method: Saturated solutions of compound were freshly prepared by adding 1 mL D.I. water into 0.8 mg compound powder. After shaking at room temperature for 3 hours, the samples were centrifuged under 14000 rpm for 15 minutes twice. The supernatants were carefully taken out and quantified by LC-MS. Solubility: 1.2±0.2 μg/mL (average of four replicates).

solubility at 3 h [µg/mL]	SMILES
1.2 ± 0.2 (≈ 0.00201 mM)	Cc1cccc(F)c1C(=O)N1CCC[C@H](C(=O)Nc2ccc(CO)c(C(F)(F)F)c2)[C@@H]1c1ccc(NC2CCCC2)cc1
